The text below walks through data of PubChem BioAssay AID652043 (Broad Institute, 2013).

Test [1] has as its system HEK293 TNFa-induced NF-kB eGFP reporter, flow cytometry, 16 h. The experiment in a line: TNFa-induced canonical NF-kB eGFP reporter inhibition, dose response, selectivity assay for LMP1 NF-kB inhibitor project, cell-based, flow cytometry, eGFP/dsRED, dry powder (AID 652043). (In general: A flow cytometer gives signals particle by particle.)
Experiment in test [2]: as above
As to conditions: HEK293 TNFa-induced NF-kB eGFP reporter, flow cytometry, 16 h.

Calls of active or inactive are those of the source.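 How the source made its calls: active means fitted curve drops below -35% activity change at a concentration within twice the highest valid tested dose; inactive means activity opposite to the expected direction, or the rest.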

On to `CN(C)c1ccc2c(c1)[C@@H]1C[C@@H](CC(=O)N3CCOCC3)O[C@@H](CO)[C@@H]1O2`, for which the AC35 in test [1] is 1.95 µM.

In the case of `CN(C)c1ccc2c(c1)[C@@H]1C[C@@H](CC(=O)NCc3ccc4c(c3)OCO4)O[C@@H](CO)[C@@H]1O2`, in test [2] (at 19.5 µM (top of the series)), the activity change, negative = inhibition was -10.4% (inactive). Consider `CN(C)c1ccc2c(c1)[C@@H]1C[C@@H](CC(=O)NCc3cc(F)ccc3F)O[C@@H](CO)[C@@H]1O2`, for which the AC35 in test [1] was 1.41 µM. Regarding `CCCNC(=O)C[C@H]1CC[C@@H]2[C@H](COc3ccc(NC(=O)c4cc(C)on4)cc3C(=O)N2C)O1`, the activity change, negative = inhibition in test [2] (at 19.5 µM (top of the series)) is -2.12% (inactive). For the compound `Cc1cc(C(=O)Nc2ccc3c(c2)C(=O)N(C)[C@@H]2CC[C@H](CC(=O)NCc4ccc(-c5ccccc5)cc4)O[C@H]2CO3)no1`, the activity change, negative = inhibition in test [2] (at 18 µM (top of the series)) is -3.35% (inactive). As for `Cc1cc(C(=O)Nc2ccc3c(c2)C(=O)N(C)[C@@H]2CC[C@H](CC(=O)N[C@@H](C)c4ccccc4)O[C@H]2CO3)no1`, the activity change, negative = inhibition in test [2] (at 21 µM (top of the series)) is -5.47% (inactive). Regarding `CN1C(=O)c2cc(NC(=O)Nc3ccccc3F)ccc2OC[C@@H]2O[C@@H](CC(=O)NCc3ccc(-c4ccccc4)cc3)CC[C@H]21`, the AC35 in test [1] is 0.161 µM. Regarding `O=C(C[C@@H]1C[C@H]2c3cc(NS(=O)(=O)c4ccc(F)cc4)ccc3O[C@H]2[C@H](CO)O1)NCc1ccc(Oc2ccccc2)cc1`, the activity change, negative = inhibition in test [2] (at 19.5 µM (top of the series)) was -4.18% (inactive). Consider `CN1C(=O)c2cc(NS(C)(=O)=O)ccc2OC[C@@H]2O[C@@H](CC(=O)NCc3ccc(-c4ccccc4)cc3)CC[C@H]21`, for which the activity change, negative = inhibition in test [2] (at 19.5 µM (top of the series)) was -0.9% (inactive). For the compound `CS(=O)(=O)Nc1ccc2c(c1)[C@@H]1C[C@@H](CC(=O)NCc3ccc(Oc4ccccc4)cc3)O[C@@H](CO)[C@@H]1O2`, the AC35 in test [1] was 0.623 µM. The same measure, in the same setting: the value for `O=C(C[C@@H]1C[C@H]2c3cc(NC(=O)NC4CCCC4)ccc3O[C@H]2[C@H](CO)O1)NCc1ccc(Oc2ccccc2)cc1` was 8.04 µM. For `COCCNC(=O)C[C@H]1CC[C@@H]2[C@H](COc3ccc(NC(=O)c4cc(C)on4)cc3C(=O)N2C)O1`, in test [2] (at 19.5 µM (top of the series)), the activity change, negative = inhibition is -8.48% (inactive).

For the compound `O=C(C[C@@H]1C[C@H]2c3cc(NC(=O)C4CCOCC4)ccc3O[C@H]2[C@H](CO)O1)NCc1ccc(Oc2ccccc2)cc1`, in test [1], the AC35 is 16.4 µM. As to `CN(C)c1ccc2c(c1)[C@@H]1C[C@@H](CC(=O)NCc3ccc(Oc4ccccc4)cc3)O[C@@H](CO)[C@@H]1O2`, in test [2] (at 19.5 µM (top of the series)), the activity change, negative = inhibition is -5.55% (inactive).

With `COc1ccccc1[C@]1(C)ON(c2ccccc2C(F)(F)F)C1=O`, in test [1], the AC35 is 10.6 µM. As for `CN(C)c1ccc2c(c1)[C@@H]1C[C@@H](CC(=O)NCC3CC3)O[C@@H](CO)[C@@H]1O2`, the activity change, negative = inhibition in test [2] (at 19.5 µM (top of the series)) was -0.472% (inactive). On the same count and under the same terms, the value for `COc1ccccc1CNC(=O)C[C@@H]1C[C@H]2c3cc(N(C)C)ccc3O[C@H]2[C@H](CO)O1` was -11.3% (inactive); that for `CN(C)c1ccc2c(c1)[C@@H]1C[C@@H](CC(=O)N3CCc4ccccc4C3)O[C@@H](CO)[C@@H]1O2` was -1.46% (inactive). On to `Cc1cc(C(=O)Nc2ccc3c(c2)C(=O)N(C)[C@@H]2CC[C@H](CC(=O)NC4CCCC4)O[C@H]2CO3)no1`, for which the AC35 in test [1] is 10 µM. Turning to `CNC(=O)C[C@H]1CC[C@@H]2[C@H](COc3ccc(NC(=O)c4cc(C)on4)cc3C(=O)N2C)O1`, the activity change, negative = inhibition in test [2] (at 19.5 µM (top of the series)) is -1.72% (inactive). With `O=C(C[C@@H]1C[C@H]2c3cc(NC(=O)Nc4ccccc4F)ccc3O[C@H]2[C@H](CO)O1)NCc1ccc(Oc2ccccc2)cc1`, the AC35 in test [1] was 16.2 µM. Consider `CN(C)c1ccc2c(c1)[C@@H]1C[C@@H](CC(=O)NCc3ccncc3)O[C@@H](CO)[C@@H]1O2`, for which the activity change, negative = inhibition in test [2] (at 19.5 µM (top of the series)) was 0.09% (inactive). On to `Cc1cc(C(=O)Nc2ccc3c(c2)C(=O)N(C)[C@@H]2CC[C@H](CC(=O)NCc4ccc(-c5ccccc5)cc4)O[C@@H]2CO3)no1`, for which the activity change, negative = inhibition in test [2] (at 21 µM (top of the series)) was -0.92% (inactive). As to `CN(C)c1ccc2c(c1)[C@@H]1C[C@@H](CC(=O)NC3CCCCC3)O[C@@H](CO)[C@@H]1O2`, the activity change, negative = inhibition in test [2] (at 19.5 µM (top of the series)) was -7.37% (inactive).

In the case of `CCNC(=O)C[C@H]1CC[C@@H]2[C@H](COc3ccc(NC(=O)c4cc(C)on4)cc3C(=O)N2C)O1`, the activity change, negative = inhibition in test [2] (at 19.5 µM (top of the series)) was -0.229% (inactive). With `Cc1cc(C(=O)Nc2ccc3c(c2)C(=O)N(C)[C@@H]2CC[C@H](CC(=O)N[C@H](C)c4ccccc4)O[C@H]2CO3)no1`, the AC35 in test [1] was 18.1 µM. Same read-out and setting: the figure for `O=C(Nc1ccc(C(F)(F)F)cc1)Nc1ccc2c(c1)[C@H]1C[C@@H](CC(=O)N3CCc4ccccc4C3)O[C@@H](CO)[C@H]1O2` is 15.8 µM; for `Nc1ccn([C@@H]2O[C@H](CO)[C@@H](O)C2O)c(=O)n1` (some centres not stated) it is 7.24 µM.

As to `CN(C)c1ccc2c(c1)[C@@H]1C[C@@H](CC(=O)NCc3cccc(F)c3)O[C@@H](CO)[C@@H]1O2`, the activity change, negative = inhibition in test [2] (at 19.5 µM (top of the series)) is -9.54% (inactive).

Take `CN(C)c1ccc2c(c1)[C@@H]1C[C@@H](CC(=O)NCc3ccccn3)O[C@@H](CO)[C@@H]1O2`: in test [2] (at 19.5 µM (top of the series)), the activity change, negative = inhibition is -11.4% (inactive). As for `COCCNC(=O)C[C@@H]1C[C@H]2c3cc(N(C)C)ccc3O[C@H]2[C@H](CO)O1`, the activity change, negative = inhibition in test [2] (at 19.5 µM (top of the series)) was -5.65% (inactive). In the case of `CN(C)c1ccc2c(c1)[C@@H]1C[C@@H](CC(=O)NCCc3ccccc3)O[C@@H](CO)[C@@H]1O2`, the activity change, negative = inhibition in test [2] (at 19.5 µM (top of the series)) is -3.65% (inactive).
